The source of these data is ChEMBL document CHEMBL3632477 (2015).

Each structure is given as a SMILES string. pEC50: −log10 of the molar value. Where a SMILES comes first, the peptide text is derived from it. Bridges are numbered along the chain shown (N, C = ends). [ ]: non-standard residue; d: D form. ξ: configuration not given here. Bip(2'-Et-4'-OMe) = CCc1cc(OC)ccc1-c1ccc(C[C@H](N)C(=O)O)cc1; αMePhe(2,6-F2) = C[C@](N)(Cc1c(F)cccc1F)C(=O)O; Bip = N[C@@H](Cc1ccc(-c2ccccc2)cc1)C(=O)O; αMePhe(2-F) = C[C@](N)(Cc1ccccc1F)C(=O)O; ξαMePhe(2-F) = CC(N)(Cc1ccccc1F)C(=O)O; hhPhe = N[C@@H](CCCc1ccccc1)C(=O)O; ξαMeF = CC(N)(Cc1ccccc1)C(=O)O; Pen = CC(C)(S)[C@H](N)C(=O)O; Aib = CC(C)(N)C(=O)O A value given as a limit tells only on which side of the number the result lay.

The assay deals with Glucagon-like peptide 1 receptor (Homo sapiens, UniProt P43220). The assay is described as follows: Agonist activity at human GLP-1R expressed in CHO-K1 cells assessed as increase in cAMP level incubated for 30 mins. The format is functional, cell-based.
Sequence of Glucagon-like peptide 1 receptor (P43220 whole entry): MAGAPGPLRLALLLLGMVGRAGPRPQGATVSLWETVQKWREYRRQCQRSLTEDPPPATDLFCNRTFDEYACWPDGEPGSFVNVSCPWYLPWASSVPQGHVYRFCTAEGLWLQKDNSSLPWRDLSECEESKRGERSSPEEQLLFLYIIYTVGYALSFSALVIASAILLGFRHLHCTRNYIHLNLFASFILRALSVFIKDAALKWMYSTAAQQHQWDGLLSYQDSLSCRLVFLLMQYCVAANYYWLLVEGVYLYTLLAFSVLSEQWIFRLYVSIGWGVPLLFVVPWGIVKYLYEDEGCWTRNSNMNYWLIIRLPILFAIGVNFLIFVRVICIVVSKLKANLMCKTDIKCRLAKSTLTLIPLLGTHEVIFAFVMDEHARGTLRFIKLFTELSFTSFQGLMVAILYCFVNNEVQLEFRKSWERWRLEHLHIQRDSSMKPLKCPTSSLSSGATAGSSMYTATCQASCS

For the compound `CCc1cc(OC)ccc1-c1ccc(C[C@@H]2NC(=O)[C@H](CC(=O)O)NC(=O)[C@H](CO)NC(=O)[C@@H]3CSSC[C@@H](C(=O)O)NC(=O)[C@H](CSSC[C@H](NC(=O)CNC(=O)[C@H](CCC(=O)O)NC(=O)C(C)(C)NC(=O)[C@@H](N)Cc4cnc[nH]4)C(=O)N[C@@H](Cc4ccccc4)C(=O)N3)NC(=O)[C@H](CC(C)C)NC(=O)[C@H](CCCc3ccccc3)NC2=O)cc1` (H-H[Aib]EGCFCSD[Bip(2'-Et-4'-OMe)][hhPhe]LCC-OH; disulfide 5-13, 7-14), the pEC50 – broadly, the negative decadic logarithm of the EC50, by convention in mol/L – was 4.80.
As for `CCc1cc(OC)ccc1-c1ccc(C[C@@H]2NC(=O)[C@H](CC(=O)O)NC(=O)[C@H](CO)NC(=O)[C@@H]3CSSC[C@@H](C(=O)O)NC(=O)[C@H](CSSC[C@H](NC(=O)CNC(=O)[C@H](CCC(=O)O)NC(=O)C(C)(C)NC(=O)[C@@H](N)Cc4cnc[nH]4)C(=O)NC(C)(Cc4ccccc4F)C(=O)N3)NC(=O)[C@H](CC(C)C)NC(=O)[C@H](CCCc3ccccc3)NC2=O)cc1` (stereo partly specified) (H-H[Aib]EGC[ξαMePhe(2-F)]CSD[Bip(2'-Et-4'-OMe)][hhPhe]LCC-OH; disulfide 5-13, 7-14), the figure is 5.30; as for `CCc1cc(OC)ccc1-c1ccc(C[C@@H]2NC(=O)[C@H](CC(=O)O)NC(=O)[C@H](CO)NC(=O)[C@H]([C@@H](C)O)NC(=O)[C@](C)(Cc3c(F)cccc3F)NC(=O)[C@H]([C@@H](C)O)NC(=O)CNC(=O)[C@H](CCC(=O)O)NC(=O)[C@@H]3CCCN3C(=O)[C@H](Cc3cnc[nH]3)NC(=O)[C@H](CO)NC(=O)[C@@H]3CSSC[C@H](NC(=O)[C@H](CCCc4ccccc4)NC2=O)C(=O)NCC(=O)NCC(=O)N[C@@H](C)C(=O)N[C@@H](C)C(=O)NCC(=O)NCC(=O)NCC(=O)N[C@@H](C)C(=O)N3)cc1` (cyclo(AAGGGACSHPEGT[αMePhe(2,6-F2)]TSD[Bip(2'-Et-4'-OMe)][hhPhe]CGG); disulfide 7-20), 6.37.
With `CCc1cc(OC)ccc1-c1ccc(C[C@H](NC(=O)[C@H](CC(=O)O)NC(=O)[C@H](CO)NC(=O)[C@@H](NC(=O)[C@](C)(Cc2c(F)cccc2F)NC(=O)[C@@H](NC(=O)CNC(=O)[C@H](CCC(=O)O)NC(=O)[C@@H]2CCCN2C(=O)[C@@H](N)Cc2cnc[nH]2)[C@@H](C)O)[C@@H](C)O)C(=O)N[C@@H](CCCc2ccccc2)C(=O)N[C@H]2CSSC[C@@H](C(=O)N[C@@H](CO)C(=O)O)NC(=O)[C@H](C)NC(=O)CNC(=O)CNC(=O)CNC(=O)[C@H](C)NC(=O)[C@H](C)NC(=O)[C@H](Cc3ccc(-c4ccccc4)cc3)NC(=O)CNC2=O)cc1` (H-HPEGT[αMePhe(2,6-F2)]TSD[Bip(2'-Et-4'-OMe)][hhPhe]CG[Bip]AAGGGACS-OH; disulfide 12-21) the figure was 8.62.
As for `CCc1cc(OC)ccc1-c1ccc(C[C@H](NC(=O)[C@H](CC(=O)O)NC(=O)[C@H](CO)NC(=O)[C@@H](NC(=O)[C@](C)(Cc2ccccc2F)NC(=O)[C@H](CS)NC(=O)CNC(=O)[C@H](CCC(=O)O)NC(=O)C(C)(C)NC(=O)[C@@H](N)Cc2cnc[nH]2)[C@@H](C)O)C(=O)N[C@@H](CCCc2ccccc2)C(=O)N[C@H](CS)C(N)=O)cc1`, the figure is less than 6.00; as for `CCc1cc(OC)ccc1-c1ccc(C[C@H](NC(=O)[C@H](CC(=O)O)NC(=O)[C@H](CO)NC(=O)[C@@H](NC(=O)[C@](C)(Cc2c(F)cccc2F)NC(=O)[C@@H](NC(=O)CNC(=O)[C@H](CCC(=O)O)NC(=O)[C@@H]2CCCN2C(=O)[C@@H](N)Cc2cnc[nH]2)[C@@H](C)O)[C@@H](C)O)C(=O)N[C@@H](CCCc2ccccc2)C(=O)N[C@H](C(=O)NCC(=O)NCC(=O)N[C@@H](C)C(=O)N[C@@H](C)C(=O)NCC(=O)NCC(=O)NCC(=O)N[C@@H](C)C(=O)N[C@H](C(=O)N[C@@H](CO)C(=O)O)C(C)(C)S)C(C)(C)S)cc1` (H-HPEGT[αMePhe(2,6-F2)]TSD[Bip(2'-Et-4'-OMe)][hhPhe][Pen]GGAAGGGA[Pen]S-OH), 8.60.
Take `CCc1cc(OC)ccc1-c1ccc(C[C@H](NC(=O)[C@H](CC(=O)O)NC(=O)[C@H](CS)NC(=O)[C@@H](NC(=O)[C@](C)(Cc2ccccc2F)NC(=O)[C@@H](NC(=O)CNC(=O)[C@H](CCC(=O)O)NC(=O)C(C)(C)NC(=O)[C@@H](N)Cc2cnc[nH]2)[C@@H](C)O)[C@@H](C)O)C(=O)N[C@@H](CCCc2ccccc2)C(=O)N[C@H](CS)C(N)=O)cc1`: the pEC50 is 5.94.
As for `CCc1cc(OC)ccc1-c1ccc(C[C@H](NC(=O)[C@H](CC(=O)O)NC(=O)[C@H](CO)NC(=O)[C@@H](NC(=O)[C@](C)(Cc2c(F)cccc2F)NC(=O)[C@@H](NC(=O)CNC(=O)[C@H](CCC(=O)O)NC(=O)[C@@H]2CCCN2C(=O)[C@@H](N)Cc2cnc[nH]2)[C@@H](C)O)[C@@H](C)O)C(=O)N[C@@H](CCCc2ccccc2)C(=O)N[C@H]2CSSC[C@@H](C(=O)N[C@@H](CO)C(=O)O)NC(=O)[C@H](C)NC(=O)CNC(=O)CNC(=O)CNC(=O)[C@H](C)NC(=O)[C@H](C)NC(=O)CNC(=O)CNC2=O)cc1` (H-HPEGT[αMePhe(2,6-F2)]TSD[Bip(2'-Et-4'-OMe)][hhPhe]CGGAAGGGACS-OH; disulfide 12-21), the figure is 9.07; as for `CCc1cc(OC)ccc1-c1ccc(C[C@@H]2NC(=O)[C@H](CC(=O)O)NC(=O)[C@H](CO)NC(=O)[C@@H]3CSSC[C@@H](C(=O)O)NC(=O)[C@H](CSSC[C@H](NC(=O)CNC(=O)[C@H](CCC(=O)O)NC(=O)C(C)(C)NC(=O)[C@H](Cc4cnc[nH]4)NC(C)=O)C(=O)N[C@@](C)(Cc4c(F)cccc4F)C(=O)N3)NC(=O)[C@H](CC(C)C)NC(=O)[C@H](CCCc3ccccc3)NC2=O)cc1` (Ac-H[Aib]EGC[αMePhe(2,6-F2)]CSD[Bip(2'-Et-4'-OMe)][hhPhe]LCC-OH; disulfide 5-13, 7-14), 7.16; as for `CCc1cc(OC)ccc1-c1ccc(C[C@@H]2NC(=O)[C@H](CC(=O)O)NC(=O)[C@H](CO)NC(=O)[C@H]([C@@H](C)O)NC(=O)[C@](C)(Cc3c(F)cccc3F)NC(=O)[C@H]([C@@H](C)O)NC(=O)CNC(=O)[C@H](CCC(=O)O)NC(=O)[C@@H]3CCCN3C(=O)[C@H](Cc3cnc[nH]3)NC(=O)[C@H](CO)NC(=O)[C@@H]3CSSC[C@H](NC(=O)[C@H](CCCc4ccccc4)NC2=O)C(=O)NCC(=O)N[C@@H](Cc2ccc(-c4ccccc4)cc2)C(=O)N[C@@H](C)C(=O)N[C@@H](C)C(=O)NCC(=O)NCC(=O)NCC(=O)N[C@@H](C)C(=O)N3)cc1` (cyclo(AAGGGACSHPEGT[αMePhe(2,6-F2)]TSD[Bip(2'-Et-4'-OMe)][hhPhe]CG[Bip]); disulfide 7-20), 6.33.
For `CCc1cc(OC)ccc1-c1ccc(C[C@H](NC(=O)[C@H](CC(=O)O)NC(=O)[C@H](CO)NC(=O)[C@@H](NC(=O)[C@](C)(Cc2ccccc2F)NC(=O)[C@@H](NC(=O)CNC(=O)[C@H](CCC(=O)O)NC(=O)[C@@H]2CCCN2C(=O)[C@@H](N)Cc2cnc[nH]2)[C@@H](C)O)[C@@H](C)O)C(=O)N[C@@H](CCCc2ccccc2)C(=O)N[C@H]2CSSC[C@@H](C(=O)N[C@@H](CO)C(=O)O)NC(=O)[C@H](C)NC(=O)CNC(=O)CNC(=O)CNC(=O)[C@H](C)NC(=O)[C@H](C)NC(=O)CNC(=O)CNC2=O)cc1` (H-HPEGT[αMePhe(2-F)]TSD[Bip(2'-Et-4'-OMe)][hhPhe]CGGAAGGGACS-OH; disulfide 12-21), the pEC50 is 9.00.
Regarding `CCc1cc(OC)ccc1-c1ccc(C[C@H](NC(=O)[C@H](CC(=O)O)NC(=O)[C@H](CO)NC(=O)[C@@H](NC(=O)[C@](C)(Cc2c(F)cccc2F)NC(=O)[C@@H](NC(=O)CNC(=O)[C@H](CCC(=O)O)NC(=O)[C@@H]2CCCN2C(=O)[C@@H](N)Cc2cnc[nH]2)[C@@H](C)O)[C@@H](C)O)C(=O)N[C@@H](CCCc2ccccc2)C(=O)N[C@H]2CSSC[C@@H](C(=O)N[C@@H](CO)C(N)=O)NC(=O)[C@H](C)NC(=O)CNC(=O)CNC(=O)CNC(=O)[C@H](C)NC(=O)[C@H](C)NC(=O)CNC(=O)CNC2=O)cc1` (H-HPEGT[αMePhe(2,6-F2)]TSD[Bip(2'-Et-4'-OMe)][hhPhe]CGGAAGGGACS-NH2; disulfide 12-21), the pEC50 is 7.89.
In the case of `CCc1cc(OC)ccc1-c1ccc(C[C@@H]2NC(=O)[C@H](CC(=O)O)NC(=O)[C@H](CO)NC(=O)[C@H]([C@@H](C)O)NC(=O)[C@](C)(Cc3c(F)cccc3F)NC(=O)[C@H]([C@@H](C)O)NC(=O)CNC(=O)[C@H](CCC(=O)O)NC(=O)[C@@H]3CCCN3C(=O)[C@H](Cc3cnc[nH]3)NC(=O)[C@H](CO)NC(=O)[C@H](C(C)(C)S)NC(=O)[C@H](C)NC(=O)CNC(=O)CNC(=O)CNC(=O)[C@H](C)NC(=O)[C@H](C)NC(=O)CNC(=O)CNC(=O)[C@H](C(C)(C)S)NC(=O)[C@H](CCCc3ccccc3)NC2=O)cc1` (cyclo(AAGGGA[Pen]SHPEGT[αMePhe(2,6-F2)]TSD[Bip(2'-Et-4'-OMe)][hhPhe][Pen]GG)), the pEC50 is 5.70.
`CC(C)C[C@@H]1NC(=O)[C@H](Cc2ccccc2)NC(=O)[C@H](CC(N)=O)NC(=O)[C@H](CCCNC(=N)N)NC(=O)[C@H](CCCCN)NC(=O)[C@@H]2CSSC[C@@H](C(N)=O)NC(=O)[C@H](CSSC[C@H](NC(=O)[C@@H](N)CO)C(=O)N[C@@H](CO)C(=O)N2)NC1=O` (H-SCSCKRNFLCC-NH2; disulfide 2-10, 4-11): the pEC50 is 9.33.
As for `CCc1cc(OC)ccc1-c1ccc(C[C@@H]2NC(=O)[C@H](CC(=O)O)NC(=O)[C@H](CO)NC(=O)[C@@H]3CSSC[C@@H](C(=O)O)NC(=O)[C@H](CSSC[C@H](NC(=O)CNC(=O)[C@H](CCC(=O)O)NC(=O)C(C)(C)NC(=O)[C@@H](N)Cc4cnc[nH]4)C(=O)NC(C)(Cc4ccccc4)C(=O)N3)NC(=O)[C@H](CC(C)C)NC(=O)[C@H](CCCc3ccccc3)NC2=O)cc1` (stereo partly specified) (H-H[Aib]EGC[ξαMeF]CSD[Bip(2'-Et-4'-OMe)][hhPhe]LCC-OH; disulfide 5-13, 7-14), the figure is 5.80.
With `CCc1cc(OC)ccc1-c1ccc(C[C@@H]2NC(=O)[C@H](CC(=O)O)NC(=O)[C@H](CO)NC(=O)[C@H]([C@@H](C)O)NC(=O)[C@](C)(Cc3c(F)cccc3F)NC(=O)[C@H]([C@@H](C)O)NC(=O)CNC(=O)[C@H](CCC(=O)O)NC(=O)[C@@H]3CCCN3C(=O)[C@H](Cc3cnc[nH]3)NC(=O)[C@H](CO)NC(=O)[C@@H]3CSSC[C@H](NC(=O)[C@H](CCCc4ccccc4)NC2=O)C(=O)NCC(=O)NCC(=O)N[C@@H](C(C)C)C(=O)N[C@@H](C(C)C)C(=O)N[C@@H](C(C)C)C(=O)NCC(=O)N[C@@H](C(C)C)C(=O)N[C@@H](C(C)C)C(=O)N3)cc1` (cyclo(CGGVVVGVVCSHPEGT[αMePhe(2,6-F2)]TSD[Bip(2'-Et-4'-OMe)][hhPhe]); disulfide 1-10) the figure was 6.00.
